The results in this text go back to patent US10213506B2, “Targeting immunotherapy for amyloidosis” (UNIVERSITY OF TENNESSEE RESEARCH FOUNDATION, priority 2014, dated 2019).

The subject of one test is mAb clones. Description: Capture of biotinylated negative control peptides by adsorbed mAbs. In kind it is binding, murine. Conditions: 100 ng/well. How it is done:
More particularly, 96-well ELISA microplates were coated overnight with the indicated mAbs (500 ng/well), the wells were blocked with PBS/BSA solution before addition of biotinylated p5+14 peptide (100 ng/well). Biotinylated peptides, p5R and p31G (aka p5G) were used as a negative control. Following a wash step, detection of captured peptide was achieved by addition of europium-conjugated streptavidin as described above.

Test [1] concerns synthetic and naturally-occurring amyloid samples. Briefly: 125I-peptide pull-down assay. The format is binding. As to the method:
To evaluate the binding of p66 and p5+14 to synthetic and naturally-occurring amyloid, peptides p66 or p5+14 were radiolabeled with iodine-125 (I-125, ^125I) using oxidation with chloramine T (1 mg/ml in water freshly made. Free 1-125 was removed from the reaction mixture by size exclusion chromatography using a Sephadex G-25 solid phase and a 0.1% (w/v) gelatin in PBS mobile phase. Fractions of ˜250 μl were collected and the radioactivity in each measured using a gamma counter (Packard Cobra II auto-gamma counter). Peptide fractions with peak radioactivity were pooled and used for the “pull-down” assays.
For the pull down assay, ^125I-labeled peptide binding to murine: (m) AA and wild type (WT) liver homogenates (25 μl); rVλ6Wil (AL), Aβ(1-40) and islet amyloid polypeptide (IAPP) synthetic fibrils (25 μg), and; transthyretin-associated (ATTR), ALκ4-Cab and ALλ1-Ship human amyloid extracts (50 μg). The ^125I-peptides were prepared in PBST (0.15 M NaCl) or PBST with 1 M NaCl. Ten μl (˜5 ng, ˜100,000 counts per min [cpm]) of the ^125I-peptide solution was added to each test sample in a 200 μl volume. The reaction mixtures were rotated for 1 h at RT, then centrifuged twice at 16,000× g for 10 min. After each step the supernatants were removed and collected in test tubes. The pellets, obtained following the second spin were resuspended in PBST. The radioactivity in both the supernatant and pellet samples were measured using a Packard Cobra II auto-gamma counter. The bound peptide, expressed as % total was calculated according to: Bound peptide(% total)=(Pellet cpm)/(Pellet cpm+Supernatant cpm)

A further test has as its system AA amyloid. Description: In vivo pre-targeting of 125I-11-1F4 to systemic AA amyloid. Conditions: AA mice, ~400 μg unlabeled peptide, 24 h post injection of 11-1F4. As to the method: (§1) Systemic visceral AA amyloidosis was induced in H2-L^d-huIL-6 Tg Balb/c transgenic mice that constitutively express the human interleukin-6 transgene, by iv injection of 10 μg of purified, splenic AA amyloid (amyloid enhancing factor; AEF) in 100 μL of sterile phosphate-buffered saline (PBS). Peptide p66 pre-targeting of ^125I-11-1F4 was evaluated in mice at 3-4 wk post AEF injection when amyloid load was modest.
(§2) Three cohorts of 3 mice, each received ˜400 μg of unlabeled peptide p66, and a second group of 3 cohorts were given peptide p5+14 as a control. Twenty-four hours after the peptide injection all mice were administered ˜150 μCi (˜20 μg) of ^125I-11-1F4 IV in the lateral tail vein. One group of p66 mice (n=3) and one group of p5+14 control mice (n=3) were euthanized at 24, 48 and 72 h post injection of 11-1F4 mAb and the organs harvested at necropsy for fixation, followed by microautoradiographic and immunohistochemical analyses.
For autoradiography, 6-μm-thick sections were cut from formalin-fixed, paraffin-embedded blocks, containing tissues from mice that had received ^125I-p66. The sections were placed on Plus microscope slides (Fisher Scientific), dipped in NTB-2 emulsion (Eastman Kodak), stored in the dark, and developed after a 4 day exposure. Each section was counterstained with hematoxylin and eosin. […]

A further test has as its system liver macrophages. Briefly: Liver macrophage staining (Iba-1) after in vivo pre-targeting. As to conditions: AA mice pre-injected with the peptide, 72 h post injection of 11-1F4 mAb. How it is done: as §1, §2
The presence of macrophages was detected by staining with mAb Iba-1 (1:8000 diln) followed by addition of biotinylated rabbit anti-mouse secondary reagent (Vector Rabbit Elite kit). The slides were developed, as described above. All tissue sections were examined using a Leica DM500 light microscope fitted with cross-polarizing filters (for Congo red). Digital microscopic images were acquired using a cooled CCD camera (SPOT; Diagnostic Instruments).

A further test addresses T1, human ATTR amyloid (Homo sapiens, UniProt P02766).
T1 construct: human ATTR-laden formalin-fixed paraffin embedded tissue sections; from tissue
Description: Pre-targeting immunohistochemistry on ATTR-laden tissue sections. In kind it is binding. As to conditions: biotinylated peptide without mAb; compared with Congo red. How it is done:
The pre-targeting efficacy of peptide p5+14 in conjunction with mAb clones 4, 5, 12, or 13 was further evaluated using human ATTR-laden formalin-fixed paraffin embedded tissue sections. More particularly, six micrometer-thick sections, cut from formalin-fixed, paraffin embedded human transthyretin (TTR) amyloid-laden tissue, were subjected to antigen retrieval by incubation with CitraPlus (BioGenex, San Ramon, Calif.) for 30 min at 90° C. Peptide p5+14 was added to the tissue at ˜3 μg/mL (30× molar excess over mAb) and incubated overnight at 4° C. Unbound reagent was removed by washing in PBST for 30 min. Tissues (with or without p5+14) were immunostained with a 3 μg/mL solution of biotinylated anti-peptide mAb (clones 4, 5, 12, or 13). Slides were developed by addition of streptavidin-HRP (Vectastain Elite ABC kit, Vector Labs) followed by 3,3′-diaminobezidene (Vector Labs).
By way of positive control, a biotinylated-p5+14 peptide (without mAb) was used to directly stain TTR amyloid in this tissue (red arrows, below), as described above.
To confirm the presence and distribution of amyloid in the tissue a consecutive slide was stained with Congo red. Briefly, tissues were incubated in Congo red solution (0.8% w/v Congo red, 0.2% KOH w/v in 80% ethanol) for 1 h at RT. Sections were then washed in water and counterstained by suspending in Mayer's hematoxylin for 2 min. […]

The test system of another test is AA amyloid deposits. Description: In vivo binding of 125I-p66 in mice with systemic AA amyloidosis. As to the method:
Systemic visceral AA amyloidosis was induced in H2-L^d-huIL-6 Tg Balb/c transgenic mice that constitutively express the human interleukin-6 transgene, by iv injection of 10 μg of purified, splenic AA amyloid (amyloid enhancing factor; AEF) in 100 μL of sterile phosphate-buffered saline (PBS). Peptide p66 was evaluated in mice at 4-6 wk post AEF injection when amyloid load was significant.
(§3) Imaging was performed using WT or AA amyloid mice (n=3) that were injected with ˜5 μg of ^125I-p66, 125 μCi in the lateral tail vein. After the appropriate uptake time (data for 4 and 72 h pi shown), mice were euthanized by isoflurane inhalation overdose. SPECT images were acquired using an Inveon trimodality imaging platform (Siemens Preclinical Solution, Knoxville, Tenn.) running Inveon Acquisition Workplace software (ver. 2.0). Low energy (^125I; 25-45 keV) gamma photons were acquired at each of 60, 16-sec projections with 90 mm of bed travel. A 1 mm-diameter, 5-pinhole (Mouse Whole Body) collimator was used at 30 mm from the center of the field of view. Data were reconstructed post hoc onto an 88×88×312 matrix with isotropic 0.50 mm voxels using a 3D ordered subset expectation maximization (OSEM) algorithm (8 iterations; 6 subsets).
CT data were acquired using an x-ray voltage biased to 80 kVp with a […] anode current, with 4×4 binning. A 225 msec exposure was used, and 360, 1-degree projections were collected. The data were reconstructed using an implementation of the Feldkamp filtered back-projection algorithm onto a 512×512×1296 matrix with isotropic 0.106 mm voxels. […]
Samples of liver, spleen, pancreas, kidneys, small and large intestines, stomach and heart were harvested post mortem from every mouse undergoing imaging with ^125I-p66. A sample of each was placed into a tared, plastic vial, weighed and the ^125I radioactivity measured using an automated Wizard 3 gamma counter (1480 Wallac Gamma Counter, Perkin Elmer). The biodistribution data were expressed as % injected dose/g tissue (% ID/g). […]

A further test has as its target BSA-blocked wells (Bos taurus, UniProt P02769). Briefly: p66 and 11-1F4 on BSA-blocked wells without fibrils. In kind it is binding. As to conditions: no fibrils.
Test [2] is described as follows: In vivo binding of 125I-p66 in healthy WT mice. As to conditions: 125I-labelled peptide iv. How it is done:
as §3
Samples of liver, spleen, pancreas, kidneys, small and large intestines, stomach and heart were harvested post mortem from every mouse undergoing imaging with ^125I-p66. A sample of each was placed into a tared, plastic vial, weighed and the ^125I radioactivity measured using an automated Wizard 3 gamma counter (1480 Wallac Gamma Counter, Perkin Elmer). The biodistribution data were expressed as % injected dose/g tissue (% ID/g). In addition, samples of each tissue were fixed in 10% buffered-formalin for 24 h and embedded in paraffin for autoradiography. […]

Chain of BSA-blocked wells (P02769 25-607): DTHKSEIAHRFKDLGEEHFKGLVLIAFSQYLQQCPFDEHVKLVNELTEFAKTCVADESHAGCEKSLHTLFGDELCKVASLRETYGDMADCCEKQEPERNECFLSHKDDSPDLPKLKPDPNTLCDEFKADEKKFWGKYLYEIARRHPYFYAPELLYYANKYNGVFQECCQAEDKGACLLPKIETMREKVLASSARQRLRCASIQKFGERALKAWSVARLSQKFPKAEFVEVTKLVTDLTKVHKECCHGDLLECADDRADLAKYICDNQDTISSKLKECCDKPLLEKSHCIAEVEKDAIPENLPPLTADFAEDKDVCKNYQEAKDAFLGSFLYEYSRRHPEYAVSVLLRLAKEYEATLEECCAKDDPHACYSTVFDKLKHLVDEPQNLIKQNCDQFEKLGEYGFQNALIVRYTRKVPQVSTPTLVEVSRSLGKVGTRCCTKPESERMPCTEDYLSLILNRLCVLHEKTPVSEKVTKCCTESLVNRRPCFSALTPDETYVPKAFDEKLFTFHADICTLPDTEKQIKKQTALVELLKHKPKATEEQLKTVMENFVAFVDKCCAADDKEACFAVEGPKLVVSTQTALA

As for “p5G: SEQ ID NO: 3: GAQGAQAGQAGQAQGAQGAQAGQAGQ (GAQGAQAGQAGQAQGAQGAQAGQAGQ; Peptide p5G)”, the “Capture of biotinylated peptide by adsorbed mAb clones” value with mAb clones is “not captured”.
Take “p5+14: SEQ ID NO: 17: KAQKAQAKQAKQAQKAQKAQAKQAKQAQKAQKAQAKQAKQ (KAQKAQAKQAKQAQKAQKAQAKQAKQAQKAQKAQAKQAKQ; Peptide p5+14)”: the “Binding of 125I-peptide to amyloid samples (pull-down)” value (“Binding of 125I-peptide” for short) in test [1] (0.15 M NaCl) and in test [1] (1.0 M NaCl) was “bound equally well” each time. Also, the “Peptide associated with AA amyloid in tissues (immunohistochemistry with clone 12-3)” value with AA amyloid is “p5+14-coated AA amyloid in all tissues evaluated”. Further, the “Liver macrophage infiltration (Iba-1 staining)” value with liver macrophages was “induced macrophage infiltration”. The “Direct staining of ATTR amyloid by biotinylated peptide” value in the test with human ATTR amyloid is “co-localizes with amyloid deposits”.
In the case of “p5R: SEQ ID NO: 2: RAQRAQARQARQAQRAQRAQARQARQ (RAQRAQARQARQAQRAQRAQARQARQ; Peptide p5R)”, the “Capture of biotinylated peptide by adsorbed mAb clones” value in the test with mAb clones is reported as “not captured”.
Consider “p66: SEQ ID NO: 18: p5+14 fused via linker SVTVVT to 11-1F4 12-mer epitope KHYAAFPENLLI (KAQKAQAKQAKQAQKAQKAQAKQAKQAQKAQKAQAKQAKQSVTVVTKHYAAFPENLLI; Fusion protein between p66 and antibody epitope sequence 11-1F4)”, for which, in test [1] (0.15 M NaCl), the “Binding of 125I-peptide” value is “bound equally well”. Besides, the “Binding of 125I-peptide” value in test [1] (1.0 M NaCl) is “bound equally well”. Besides, in the test on AA amyloid, the “Peptide associated with AA amyloid in tissues (immunohistochemistry with clone 12-3)” value was “associated specifically with AA amyloid”. For the same substance, in the test with AA amyloid deposits (125I-labelled peptide iv, mice with systemic AA amyloidosis), the “Binding to amyloid deposits in vivo (micro-autoradiography vs Congo red)” value is recorded as “specifically bound the amyloid deposits”. Moreover, in the test with AA amyloid deposits (125I-labelled peptide, AA mice), the “Reactivity with amyloid in vivo, notably liver, spleen, pancreas and intestines (SPECT/CT imaging and tissue biodistribution)” value is listed as “confirmed”; the “Time post injection at which liver amyloid could be visualized by SPECT imaging” value is “at least 72 h”. Further, the “Peptide binding to BSA-blocked wells in the absence of fibrils” value with BSA-blocked wells was “no peptide bound”. The “Liver macrophage infiltration (Iba-1 staining)” value with liver macrophages is “induced macrophage infiltration into the liver and clustering of macrophages around amyloid deposits to a greater degree”. Also, in test [2], the “Binding to healthy tissues in vivo (micro-autoradiography)” value is listed as “did not bind to any tissue”.
